Calls of active or inactive are those of the source.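 The calls were made as follows: active = fitted curve falls past a set limit of signal loss at no more than twice the top dose; inconclusive = flat fit between 30 and 70% signal loss, or poor fit; inactive = signal rise, flat within 30%, or crossing too high.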
Test: ATP-based viability loss in HEK293T cells – cell-based, CellTiter-Glo luminescence, cherry-pick, set 3, cytotoxicity control, dose response (AID 720588)
Details: HEK293T viability, CellTiter-Glo ATP luminescence, 72 h

| Compound | activity change, negative = cytotoxicity (at 26 µM (top of the series)) | also measured |
| --- | --- | --- |
| O=C(NC(=O)c1ccccc1)Nc1ccccc1 | -31.5% (inactive) | – |
| CN(C)Cc1c(O)ccc2c1O/C(=C\C=C\c1ccccc1)C2=O | -32.1% (inactive) | – |
| C/C=C/c1ccc([C@H]2[C@@H](CO)N3C(=O)CN(S(=O)(=O)c4cccc(F)c4)C[C@@H]23)cc1 | 34.3% (inactive) | – |
| Cc1c(Cc2ccc3c(c2)OCO3)sc(NC(=O)C(C)(C)C)c1C#N | -13.7% (inactive) | – |
| Cc1ccccc1N=CC1=C(O)c2ccccc2C1=O | 1.79% (inactive) | – |
| CCOc1cc2[nH]c(=S)n(Cc3ccc(C(=O)NCCN(CC)CC)cc3)c(=O)c2cc1OCC | -4.81% (inactive) | – |
| O=C(CN1C(=O)C(=O)c2ccccc21)c1ccc(Cl)cc1 | -23.4% (inactive) | – |
| CC(=O)c1ccc(NC(=O)c2noc3c2CCC3)cc1 | -5.3% (inactive) | – |
| CCCCCCN(C(=O)CCCCCN1C(=O)NC(c2ccc(Cl)cc2)C(C(=O)OCc2ccccc2)=C1C)C(C(=O)NCCCC)c1ccc(OCC(=O)OC)c(C(=O)OC)c1 (centres undefined) | -3.96% (inactive) | – |
| COC(=O)C[C@@H]1CC[C@@H]2[C@H](COc3ccc(NC(=O)Nc4cccc(Cl)c4)cc3C(=O)N2C)O1 | – | activity change, negative = cytotoxicity (at 2.85 µM (top of the series)): 39.1% (inactive) |
| COC(=O)C[C@@H]1CC[C@@H]2[C@H](COc3ccc(NC(=O)c4cc(F)cc(F)c4)cc3C(=O)N2C)O1 | -1.07% (inactive) | – |
| COc1ccc(/C=N/Nc2ccc(C(=O)O)cc2)cc1Br | -6.35% (inactive) | – |
| COc1ccc(NC(=O)c2cc3ccccc3oc2=O)cc1 | -17.4% (inactive) | – |
| O=c1[nH]c(=O)n(C2C[C@H](O)[C@@H](CO)O2)cc1C(F)(F)F (some centres undefined) | -9.97% (inactive) | – |
| CO[C@H]1CN(C)C(=O)c2cc(NC(=O)NC(C)C)ccc2OC[C@H](C)N(Cc2ccc(-c3ccccn3)cc2)C[C@@H]1C | -13.6% (inactive) | – |
| N#C[C@H]1N[C@H](CO)[C@H]1c1ccc(C#Cc2ccc(F)cc2)cc1 | -13% (inactive) | – |
| C#CCOCCOCCOCCNc1nc(N2CCN(C(=O)CCCCCCCCCCNC(=O)Cn3cc(C[C@@H](C)O)nn3)CC2)nc(N2CCN(C(=O)CCCCCCCCCCNC(=O)[C@H](CO)n3cc(CCCSC)nn3)CC2)n1 | 23.5% (inactive) | – |
| O=C(C[C@@H]1CC[C@@H]2[C@H](COC[C@@H](O)CN2S(=O)(=O)c2ccc(F)cc2)O1)NCc1ccc(Cl)c(Cl)c1 | 2.6% (inactive) | – |
| C[C@@H]1CN([C@@H](C)CO)C(=O)c2cccc(NC(=O)CCCCCC(=O)Nc3ccccc3N)c2O[C@@H]1CN(C)Cc1ccc(Oc2ccccc2)cc1 | -1.35% (inactive) | – |
| COC(=O)C[C@@H]1CC[C@@H]2[C@@H](COc3ccc(NC(=O)Nc4ccc(C#N)cc4)cc3C(=O)N2C)O1 | 47.6% (inactive) | – |
| CCOc1ccc2nc(NC3=NC(c4ccc(OC)cc4)CC(=O)N3)nc(C)c2c1 (centres undefined) | -23.2% (inactive) | – |
| COc1ccc(C=NNc2nc3ccccc3s2)cc1 | -21.8% (inactive) | – |
| Nc1ccn([C@@H]2O[C@H](CO)[C@@H](O)C2O)c(=O)n1 (some centres undefined) | -12.5% (inactive) | – |
| CN(c1ccc(NC(=O)CCc2c[nH]c3ccccc23)cc1)c1ccccn1 | -4.8% (inactive) | – |
| CCN(CC)C(=O)CN1C(=O)C(=O)c2ccccc21 | -11% (inactive) | – |

| Compound | activity change, negative = cytotoxicity (at 26 µM (top of the series)) | also measured |
| --- | --- | --- |
| Nc1ccc(-c2cc3ccccc3c(=O)o2)cc1 | -6.69% (inactive) | – |
| COc1ccc(-c2sc3ccccc3c2-c2ccc(OCCN3CCCCC3)cc2)cc1 | -16% (inactive) | – |
| CC(=O)Nc1cccc(-c2ccnc3c2CC(C)(C(=O)NCc2ccc(N(C)C)cc2)O3)c1 (centres undefined) | -10.9% (inactive) | – |
| C[C@H](CO)N1C[C@H](C)[C@H](CN(C)Cc2ccc(C(=O)Nc3ccccc3N)cc2)Oc2ccc(N(C)C)cc2C1=O | -25.7% (inactive) | – |
| CN=c1scc(-c2ccccc2F)n1/N=C/c1ccc(O)c(O)c1O | -25.3% (inactive) | – |
| COc1ccc(C(=O)OCC(=O)Nc2ccc(Cl)c(C(F)(F)F)c2)c(OC)c1OC | 6.28% (inactive) | – |
| CCOC(=O)Cc1ccc(NC(=O)c2ccccc2Br)cc1 | -14.3% (inactive) | – |
| COC(=O)C[C@@H]1CC[C@@H]2[C@H](COc3ccc(NC(=O)c4ccc(F)cc4)cc3C(=O)N2C)O1 | 76.4% (inactive) | – |
| CC(C)(C)[S@](=O)N1Cc2cc(C(=O)NCC(F)(F)F)nc(-c3cccc(-c4cccc(F)c4)c3)c2[C@@H]1CCO | -2.37% (inactive) | – |
| CN(C)c1ccc(-c2ccnc3c2CC(C)(C(=O)NCc2ccco2)O3)cc1 (centres undefined) | -32.8% (inactive) | – |
| O=C(Nc1nc(-c2ccc(F)c(F)c2)cs1)c1ccc(OCC2CCCO2)cc1 (centres undefined) | -9.94% (inactive) | – |
| C[C@@H]1CN([C@@H](C)CO)C(=O)c2cc(NS(=O)(=O)c3ccccc3)ccc2O[C@@H]1CN(C)Cc1ccc(C(=O)Nc2ccccc2N)cc1 | -19.2% (inactive) | – |
| COC(=O)C[C@@H]1CC[C@@H]2[C@H](COc3ccc(NC(=O)c4cccc(F)c4)cc3C(=O)N2C)O1 | – | activity change, negative = cytotoxicity (at 23.5 µM (top of the series)): -28.5% (inactive) |
| C[C@@H]1CN([C@H](C)CO)C(=O)c2cc(NC(=O)CCCCCC(=O)Nc3ccccc3N)ccc2O[C@H]1CN(C)S(=O)(=O)c1ccc(Cl)cc1 | -21.5% (inactive) | – |
| CC(C)(C)c1ccc(Oc2ccc(NC(=O)C3CC=CCC3C(=O)O)cc2)cc1 (centres undefined) | -16.1% (inactive) | – |
| CCn1c(C)cc(C(=O)CN2C(=O)c3ccccc3S2(=O)=O)c1C | -4.24% (inactive) | – |
| O=C(CNC(c1ccccc1)c1ccccc1)Nc1ccccc1-c1ccccc1 | -23.7% (inactive) | – |
| CCOc1ccc(-c2cc(CCCC(=O)NCc3ccc(C)cc3)no2)cc1 | 8.45% (inactive) | – |
| COc1cc(C(=O)N2CCC(N3CCN(C)CC3)CC2)ccc1Nc1ncc2c(n1)N(C)c1ccccc1C(=O)N2C | -1.13% (inactive) | – |
| COC(=O)C[C@@H]1CC[C@@H]2[C@@H](COc3ccc(NC(=O)Nc4cccc(F)c4)cc3C(=O)N2C)O1 | -28.1% (inactive) | – |
| O=C(O)c1ccccc1C(=O)Nc1ccc(Oc2ccc3ccccc3c2)cc1 | -15.8% (inactive) | – |
| CC1(C(=O)NCc2ccco2)Cc2c(-c3cccc(C(N)=O)c3)ccnc2O1 (centres undefined) | -5.89% (inactive) | – |
| CC(C)(C)C(=O)Nc1ccc(N=Nc2ccccc2)cc1 | -5.33% (inactive) | – |
| O=C(O)c1ccc2cc(-c3ccccc3)[nH]c2c1 | -28.5% (inactive) | – |
| COc1ccc(C2=Nn3c([n+](C)c4ccccc43)SC2)cc1 | -33.2% (inactive) | – |

| Compound | activity change, negative = cytotoxicity (at 26 µM (top of the series)) | also measured |
| --- | --- | --- |
| Cc1ccc(C(=O)CN2C(=O)c3ccccc3S2(=O)=O)cc1 | -1.54% (inactive) | – |
| C[C@H](CO)N1C[C@H](C)[C@H](CN(C)CC2CCCCC2)Oc2ccc(NC(=O)Nc3cccc4ccccc34)cc2C1=O | -16.8% (inactive) | – |
| CCOC(=O)Cc1csc(NC(=S)NC(=O)c2ccc(C)cc2)n1 | -21.9% (inactive) | – |
| Cc1ccc(S(=O)(=O)N(C)C[C@@H]2Oc3cc(C#Cc4ccncc4)ccc3S(=O)(=O)N([C@@H](C)CO)C[C@H]2C)cc1 | -17% (inactive) | – |
| Cc1nc2ncccn2c1-c1csc(Nc2ccc(O)cc2)n1 | 23.7% (inactive) | – |
| Cc1ccc(/C=C2\SC(=S)N(CCCC(=O)NNC(=O)c3ccccc3O)C2=O)cc1 | -14.6% (inactive) | – |
| Cc1ccc(NC(=O)COC(=O)c2ccc3c(c2)OCO3)cc1S(=O)(=O)N1CCCCC1 | -15.5% (inactive) | – |
| CCOc1ccc(-c2noc(CCC(=O)O)n2)cc1 | -18.9% (inactive) | – |
| C[C@@H]1CN([C@H](C)CO)S(=O)(=O)c2ccc(C#Cc3ccncc3)cc2O[C@@H]1CN(C)C(=O)Nc1ccc2c(c1)OCO2 | -4.95% (inactive) | – |
| CCc1ccc(S(=O)(=O)c2ccc(-n3nc(C)cc3N)cc2)cc1 | -6.44% (inactive) | – |
| CCc1c(C(=O)NN2C(=O)C3CCCCC3C2=O)csc1C (centres undefined) | -15.1% (inactive) | – |
| CC(C)(C)c1ccc(Oc2ccc(NC(=O)c3ccccc3C(=O)O)cn2)cc1 | 16.5% (inactive) | – |
| Oc1c(Cl)cc(Cl)c2cccnc12 | -45.5% (inactive) | – |
| Cc1noc(C)c1C(=O)Nc1sccc1C(N)=O | 18% (inactive) | – |
| C[C@H]1CN([C@@H](C)CO)C(=O)Cc2cc(NC(=O)CCCCCC(=O)Nc3ccccc3N)ccc2O[C@H]1CN(C)Cc1ccc(Oc2ccccc2)cc1 | -3.08% (inactive) | – |
| Cc1cc(C(=O)Nc2ccc3c(c2)C(=O)N(C)[C@@H]2CC[C@H](CC(=O)N[C@H](C)c4ccccc4)O[C@H]2CO3)no1 | 8.37% (inactive) | – |
| C[C@H](CO)N1C[C@H](C)[C@H](CN(C)Cc2ccc(Oc3ccccc3)cc2)Oc2ccc(NC(=O)CCCCCC(=O)Nc3ccccc3N)cc2CC1=O | -19.4% (inactive) | – |
| Cc1cc(C)cc(OCC(=O)OCC(=O)Nc2cc(S(=O)(=O)N3CCOCC3)ccc2C)c1 | -14.2% (inactive) | – |
| CC(=O)c1ccc(N=Nc2ccc(C)cc2)cc1 | -17% (inactive) | – |
| C(=Cc1c[nH]c2ccccc12)c1ccc2ccccc2n1 | -26.3% (inactive) | – |
| CC(C)c1ccc(OCc2cccc(C(=O)N/N=C/c3cccnc3)c2)cc1 | -18.1% (inactive) | – |
| COc1ccc(C(=O)Nc2cccc(C(=O)N/N=C/c3ccc(OC)cc3OC)c2)cc1 | -15.7% (inactive) | – |
| Cc1c(CC(=O)NCCCC(=O)O)c(=O)oc2cc3c(cc12)CCC(C)(C)O3 | -63.2% (inactive) | – |
| N#C[C@H]1N[C@H](CO)[C@H]1c1ccc(C#Cc2ccccc2F)cc1 | – | activity change, negative = cytotoxicity (at 23.5 µM (top of the series)): -11.8% (inactive) |
